Experimental data taken from patent US4100152A, “Peptides” (Takeda Chemical Industries, Ltd., priority 1976, dated 1978).

Experiments:
Assay type in all cases: in vivo
[1] = test system: TSH (thyroid stimulating hormone) release; test: TSH-releasing activity (method of Schally et al.); conditions: ratio of effect to that of the same dose of TRH (TRH = 1); rats
Protocol: (1) TSH-releasing activity
Using rats, a test was performed in accordance with the method of Schally et al. [J. Biol. Chem. 244, 4077, (1969)].
(§1) The relative effects of compound (I) by the above 4 procedures were expressed in terms of the ratios of effect of the same dose of compound (I) as that of TRH with the effects of TRH being taken as unity.

[2] = test system: mice (ICR/JCL, male, 4 weeks old); test: Anaesthesia antagonism (pentobarbital sodium, recovery of righting reflex); conditions: ratio of effect to that of the same dose of TRH (TRH = 1), 55 mg/kg pentobarbital sodium i.p., compound i.v. after 10 minutes
[3] = test system: mice (ICR/JCL, male, 4 weeks old); test: Activity-increasing action (spontaneous activity in activity wheel); conditions: ratio of effect to that of the same dose of TRH (TRH = 1), cumulative wheel rotations during 3 hours after i.v. administration
Protocol: (3) Activity-increasing action
Using groups of 10 mice (ICR/JCL, male, 4 weeks old), each mouse was placed in an activity wheel and the activity-increasing action of the medication on the mouse was observed. The cumulative number of rotations caused by the spontaneous activity of the mice during a period of 3 hours following the intravenous administration of compound (I) was compared with the number of revolutions for the control group.
as §1

[4] = test system: male mice (ICR/JCL) with one caudate nucleus destroyed; test: Dopamine activity-potentiating effect (apomorphine-induced turning, caudate nucleus destroyed, reserpine premedication); conditions: ratio of effect to that of the same dose of TRH (TRH = 1), compound given 30 minutes before 0.25 mg/kg apomorphine i.p., reserpine 2 mg/kg i.p. premedication
Protocol: (4) Dopamine activity-potentiating effect
Using groups of 10 male mice (ICR/JCL) with one of its caudate nuclei destroyed by suction the effects of compound (I) upon the number of turns and the percent incidence of head turning as caused by 0.25 mg/kg of apomorphine (I.P.), i.e., a dopamine-receptor stimulant, under the influence of premedication (18-22 hours) with 2 mg/kg of reserpine (i.p.) were examined.
Thus, compound (I) was given 30 minutes before the administration of apomorphine and the result was compared with that for the untreated (control group). This test was performed to ascertain the potentiating effect of the compound upon the central nervous system action of dopamine, the principle of the test being the same as that of the experiment performed by Everett et al. [Fed. Proc. 23, 198, (1964)] for testing the DOPA synergistic effect which involved the administration of Dl-DOPA.
as §1

Molecule	TSH-releasing effect [1]	Anaesthesia antagonism [2]	Spontaneous activity-increasing effect [3]	Dopamine-potentiating effect [4]
NC(=O)[C@@H]1CCCN1C(=O)[C@H](Cc1c[nH]cn1)NC(=O)[C@@H]1CCC(=O)N1 [TRH, L-pyroglutamyl-L-histidyl-L-prolinamide]	1	1	1	1
Oct.His.Pip.NH2 [Oct-His-Pip-NH2]	0.5	1.57	5	4.00
